According to the NIST ThermoML archive (doi:10.1021/je200811n):

Conditions: Hot wire method

C=C(F)C(F)(F)F [2,3,3,3-tetrafluoro-1-propene]
Conditions | thermal conductivity [W/m/K]
303.53 K, 5728 kPa, Liquid | 0.06591
303.55 K, 638 kPa, Gas | 0.01428
303.58 K, 863 kPa, Liquid | 0.06214
303.62 K, 95 kPa, Gas | 0.01418
303.69 K, 16013 kPa, Liquid | 0.0724
303.7 K, 10745 kPa, Liquid | 0.06899
303.7 K, 20552 kPa, Liquid | 0.07462
303.71 K, 509 kPa, Gas | 0.0142
303.73 K, 5727 kPa, Liquid | 0.06571
303.76 K, 199 kPa, Gas | 0.01415
303.8 K, 863 kPa, Liquid | 0.06166
303.93 K, 349 kPa, Gas | 0.01413
304.07 K, 95 kPa, Gas | 0.01428
304.07 K, 16014 kPa, Liquid | 0.07249
304.07 K, 20551 kPa, Liquid | 0.07457
304.1 K, 10744 kPa, Liquid | 0.06936
304.15 K, 5727 kPa, Liquid | 0.06587
304.2 K, 199 kPa, Gas | 0.0142
304.24 K, 861 kPa, Liquid | 0.06192
304.28 K, 20546 kPa, Liquid | 0.07468
304.3 K, 16011 kPa, Liquid | 0.07229
304.33 K, 10741 kPa, Liquid | 0.069
304.39 K, 5724 kPa, Liquid | 0.06553
304.5 K, 861 kPa, Liquid | 0.06141
304.55 K, 95 kPa, Gas | 0.01429
311.19 K, 200 kPa, Gas | 0.01522
311.21 K, 97 kPa, Gas | 0.01495
311.39 K, 298 kPa, Gas | 0.01522
311.41 K, 200 kPa, Gas | 0.01508
311.44 K, 97 kPa, Gas | 0.01475
311.61 K, 298 kPa, Gas | 0.01516
311.64 K, 200 kPa, Gas | 0.01494
311.67 K, 98 kPa, Gas | 0.01469
311.84 K, 298 kPa, Gas | 0.01507
311.87 K, 877 kPa, Gas | 0.01518
311.89 K, 200 kPa, Gas | 0.01484
311.92 K, 97 kPa, Gas | 0.01463
311.99 K, 676 kPa, Gas | 0.01501
312.01 K, 610 kPa, Gas | 0.01499
312.09 K, 298 kPa, Gas | 0.01504
312.14 K, 200 kPa, Gas | 0.01477
312.15 K, 876 kPa, Gas | 0.01537
312.16 K, 409 kPa, Gas | 0.0149
312.18 K, 97 kPa, Gas | 0.01458
312.25 K, 298 kPa, Gas | 0.01491
312.3 K, 675 kPa, Gas | 0.01513
312.31 K, 610 kPa, Gas | 0.01511
312.36 K, 200 kPa, Gas | 0.01491
312.46 K, 875 kPa, Gas | 0.01532
312.49 K, 408 kPa, Gas | 0.01491
312.57 K, 97 kPa, Gas | 0.01511
312.58 K, 298 kPa, Gas | 0.01491
312.62 K, 673 kPa, Gas | 0.01513
312.66 K, 608 kPa, Gas | 0.01506
312.72 K, 200 kPa, Gas | 0.01494
312.8 K, 873 kPa, Gas | 0.01537
312.85 K, 408 kPa, Gas | 0.01492
312.96 K, 298 kPa, Gas | 0.01498
312.97 K, 97 kPa, Gas | 0.01513
312.97 K, 673 kPa, Gas | 0.01511
313.01 K, 607 kPa, Gas | 0.01512
313.11 K, 200 kPa, Gas | 0.01497
313.15 K, 872 kPa, Gas | 0.01537
313.23 K, 408 kPa, Gas | 0.01499
313.34 K, 672 kPa, Gas | 0.01515
313.36 K, 298 kPa, Gas | 0.01497
313.38 K, 608 kPa, Gas | 0.01508
313.39 K, 98 kPa, Gas | 0.01515
313.53 K, 200 kPa, Gas | 0.015
313.62 K, 409 kPa, Gas | 0.01501
313.78 K, 298 kPa, Gas | 0.01501
313.83 K, 97 kPa, Gas | 0.01516
313.96 K, 201 kPa, Gas | 0.01503
314.3 K, 97 kPa, Gas | 0.01518
321.31 K, 103 kPa, Gas | 0.01573
321.31 K, 200 kPa, Gas | 0.01591
321.31 K, 302 kPa, Gas | 0.01608
321.46 K, 1449 kPa, Liquid | 0.05663
321.54 K, 103 kPa, Gas | 0.01562
321.54 K, 200 kPa, Gas | 0.01577
321.54 K, 302 kPa, Gas | 0.01588
321.56 K, 1449 kPa, Liquid | 0.05669
321.75 K, 1115 kPa, Gas | 0.0164
321.76 K, 302 kPa, Gas | 0.01587
321.78 K, 103 kPa, Gas | 0.01553
321.79 K, 200 kPa, Gas | 0.01566
321.82 K, 1447 kPa, Liquid | 0.05704
321.95 K, 1449 kPa, Liquid | 0.05672
321.97 K, 6367 kPa, Liquid | 0.06142
322.01 K, 302 kPa, Gas | 0.01579
322.01 K, 11135 kPa, Liquid | 0.06547
322.03 K, 200 kPa, Gas | 0.0156
322.04 K, 103 kPa, Gas | 0.01545
322.04 K, 1115 kPa, Gas | 0.01641
322.11 K, 1199 kPa, Gas | 0.01674
322.14 K, 959 kPa, Gas | 0.01623
322.15 K, 16399 kPa, Liquid | 0.06904
322.18 K, 862 kPa, Gas | 0.0161
322.22 K, 1450 kPa, Liquid | 0.05677

Conditions | thermal conductivity [W/m/K]
313.15 K, Liquid | 0.05899
